# Structures can show the parent of a compound that is named as a salt.
# Tested on: xylazine-induced emesis
# Assay: Xylazine-induced emesis in cats, with defensive behavior/anxiety scoring
# Assay type: in vivo
# Conditions: for anxiety 15 minutes after treatment / cats that vomited / protection against xylazine-induced emesis: FIG. 1, female cats; for cats that vomited / protection against xylazine-induced emesis: observed 30 min; for anxiety-inducing effect in test subjects / effectiveness in preventing chemically-induced emesis: administered alone, summary statement; for Defensive Behavior Scale / Mean Defensive Score / % Protection (vomiting) / Mean Latency (to retch/vomit): cats; for % Protection (vomiting) / Mean Latency (to retch/vomit): xylazine 0.66 mg/kg
# Protocol: […], 0.66 mg/kg xylazine was administered subcutaneously, and the test subjects where then observed for 30 minutes.
# Cats not susceptible to motion sickness were assigned to the xylazine testing group. Xylazine stimulates receptors on a pathway different from that used by motion sickness and thus served as a test of the generality of anti-emetic effects observed with motion testing.
# Prior to the evaluation of anti-emetic compounds, the production of an emetic response by xylazine in felines was confirmed in the laboratory. Cats were injected subcutaneously with either a freshly prepared solution of 0.66 mg/kg of xylazine in 0.9% sodium chloride or 0.9% sodium chloride vehicle, both adjusted to an injection volume of 0.1 ml/kg.
# One week following the confirmation of an emetic response by the cats, subject cats were given either vehicle or test compound/composition in 0.9% sodium chloride or vehicle (injection volume of 0.1 ml/kg) subcutaneously, 20 minutes before administration of xylazine. […] Animals were scored using the vomit scale developed by Suri et al., 1979. Additional experiments were separated by at least a 1 week washout period.
# A. Vomit Scale Scoring: • 1. Sal I (licking—parasympathetic): 1 pt • 2. Sal II (drool, thin/frothy—early sympathetic): 2 pts • 3. Sal III (stringy saliva, dangles—sympathetic): 4 pts • 4. Defection: 8 pts • 5. Urination: 8 pts • 6. Wretch/vomiting: 16 pts
# B. Defensive Behavior Scale: • 1. No defensiveness: normal behavior; • 2. Slight defensiveness: retreating to the rear of the cage when approached and/or growling when being carried; • 3. […] Strong defensiveness: vigorous clawing and biting to prevent being handled. IV. Statistical Methods
# Dose response curves were analyzed by Cochran's Q-test to establish significant effects. Paired comparisons were made using McNemar's test. Tests for line parallelism, relative potency and ED50 were based on least squares regression in a program for pharmacological statistics. The data from the nonparametric rating scale was analyzed using Friedman's analysis of variance model (ANOVA).
# [1] = 0.08 mg/kg SC 15 min before xylazine 0.66 mg/kg SC
compound,measurement,setting,value
"CCCN(CCC)[C@@H]1CCc2cccc(O)c2C1 [R-(+)-DPAT, R(+)-8-Hydroxy-2-(dipropylamino)tetralin hydrobromide]",anxiety 15 minutes after treatment,0.08 mg/kg SC,extreme level of anxiety
same,cats that vomited,[1],none of the cats vomited
same,anxiety-inducing effect in test subjects,,moderate to strong
same,effectiveness in preventing chemically-induced emesis,,100%
same,Defensive Behavior Scale,0.02 mg/kg SC,Moderate
same,Mean Defensive Score,0.02 mg/kg SC,2.0
same,% Protection (vomiting),0.02 mg/kg SC,100.00%
same,Defensive Behavior Scale,0.04 mg/kg SC,Strong
same,Mean Defensive Score,0.04 mg/kg SC,3.0
same,% Protection (vomiting),0.04 mg/kg SC,100.00%
same,Defensive Behavior Scale,0.08 mg/kg SC,Strong
same,Mean Defensive Score,0.08 mg/kg SC,3.0
same,% Protection (vomiting),0.08 mg/kg SC,100.00%
"CCCN(CCC)C1CCc2cccc(O)c2C1 (racemic) [R/S-(+/−)-DPAT, (±)-8-Hydroxy-2-(dipropylamino)tetralin]",anxiety 15 minutes after treatment,0.16 mg/kg SC,moderate level of anxiety
same,protection against xylazine-induced emesis,0.16 mg/kg SC 15 min before xylazine 0.66 mg/kg SC,100%
same,Defensive Behavior Scale,0.16 mg/kg SC,Moderate
same,Mean Defensive Score,0.16 mg/kg SC,2.0
same,% Protection (vomiting),0.16 mg/kg SC,100.00%
"CCCN(CCC)[C@H]1CCc2cccc(O)c2C1 [S-(−)-DPAT, S(−)-8-Hydroxy-2-(dipropylamino)tetralin hydrobromide]",anxiety 15 minutes after treatment,0.08 mg/kg SC,did not show any anxiety
same,cats that vomited,[1],40%
same,protection against xylazine-induced emesis,[1],60%
same,anxiety-inducing effect in test subjects,,no anxiety or only slight anxiety
same,effectiveness in preventing chemically-induced emesis,,not fully effective
same,Defensive Behavior Scale,0.08 mg/kg SC,None
same,% Protection (vomiting),0.08 mg/kg SC,75.00%
same,Mean Latency (to retch/vomit),0.08 mg/kg SC,1.58 min
same,Defensive Behavior Scale,0.16 mg/kg SC,None
same,% Protection (vomiting),0.16 mg/kg SC,85.71%
same,Mean Latency (to retch/vomit),0.16 mg/kg SC,0.82 min
same,Defensive Behavior Scale,0.32 mg/kg SC,Slight
same,Mean Defensive Score,0.32 mg/kg SC,1.0
same,% Protection (vomiting),0.32 mg/kg SC,80.00%
same,Mean Latency (to retch/vomit),0.32 mg/kg SC,1.00 min

# — patent US8637263B1, “Assay for determination of compounds having anti-emetic activity” (Epiomed Therapeutics, Inc., priority 2010, dated 2014)
